Laboratory results taken from PMC5207512, “Inhibition of Helicobacter pylori and Its Associated Urease by Palmatine: Investigation on the Potential Mechanism” (PLoS ONE, 2017).
Several values for one entry are separate records, joined by “and”; a condition that tells them apart may be missing. Identical values can stand only once. Like-named read-outs stand apart in the source and are kept apart here.

Key:
[1] = biological target: T1, jack bean urease (JBU) (Canavalia ensiformis, UniProt P07374); assay: Urease inhibition test (modified Berthelot method); format: biochemical; conditions: JBU 0.25 mg/mL; 20 min preincubation 37°C, pH 7.5; read-out: IC50
T1 construct: Urease from jack bean (Canavalia ensiformis, JBU); purchased Sigma-Aldrich (St Louis, MO, USA) type III (catalogue number not given)
T1 sequence (P07374 whole entry, looked up): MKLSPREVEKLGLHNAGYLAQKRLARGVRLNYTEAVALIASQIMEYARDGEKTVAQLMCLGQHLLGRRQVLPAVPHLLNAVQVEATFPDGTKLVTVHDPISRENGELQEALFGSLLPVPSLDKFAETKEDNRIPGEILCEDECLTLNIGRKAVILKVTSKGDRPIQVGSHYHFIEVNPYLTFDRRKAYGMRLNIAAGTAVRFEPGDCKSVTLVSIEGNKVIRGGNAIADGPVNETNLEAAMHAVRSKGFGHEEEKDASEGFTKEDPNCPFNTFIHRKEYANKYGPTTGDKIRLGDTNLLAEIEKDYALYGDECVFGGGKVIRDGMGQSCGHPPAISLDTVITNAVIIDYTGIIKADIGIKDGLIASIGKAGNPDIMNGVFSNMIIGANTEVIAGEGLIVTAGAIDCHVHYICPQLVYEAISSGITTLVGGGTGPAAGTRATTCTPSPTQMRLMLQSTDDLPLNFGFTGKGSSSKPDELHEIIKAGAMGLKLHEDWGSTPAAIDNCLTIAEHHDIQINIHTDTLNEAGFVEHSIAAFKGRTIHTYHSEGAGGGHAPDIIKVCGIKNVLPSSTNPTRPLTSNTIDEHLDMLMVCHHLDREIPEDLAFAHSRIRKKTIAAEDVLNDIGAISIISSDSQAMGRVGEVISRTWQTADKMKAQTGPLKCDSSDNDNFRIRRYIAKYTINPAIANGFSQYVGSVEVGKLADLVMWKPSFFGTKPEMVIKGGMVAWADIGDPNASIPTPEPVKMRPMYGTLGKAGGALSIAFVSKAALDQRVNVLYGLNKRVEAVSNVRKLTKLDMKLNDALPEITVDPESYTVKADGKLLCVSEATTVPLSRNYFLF
Experimental: (§1) HPU was prepared as previously described. The standard urease assay mixture included 150 mM urea in 20 mM HEPES buffer (pH 7.5). After addition of small aliquots of enzyme-containing solution of urease, the assay ran for 20 min. The enzymatic activity was evaluated spectrophotometrically by detecting the ammonia concentration at 595 nm according to the modified Berthelot (phenol-hypochlorite) method. Urease activity was estimated with JBU as a standard, the specific activity of HPU was determined to be 17.0 U/mg. One unit of urease activity was defined as 1 μmol of ammonia released per min at 25°C. The amount of protein was determined by commercial Bradford Protein Assay Kit with BSA as a standard. The amount of ammonia released was decided from a standard curve. The activity of uninhibited urease was defined as the control activity of 100%.
(§2) Reaction mixtures comprising 0.25 mg/mL HPU or JBU and different concentrations of Pal or AHA at the volume ratio of 1:1, were incubated at 37°C in 20 mM HEPES buffer (pH 7.5) in the absence of urea. The reactions were initiated by mixing the urease and the inhibitor. The preincubation mixture was withdrawn at 20 min and immediately transferred into the standard assay mixtures for urease residual activity determination. Inhibition rate (%) was calculated following the formula: I % = (1-activity with inhibitors/activity without inhibitors) × 100%. The IC50 was expressed as the concentration of inhibitor that decreased urease activity by 50% and calculated by plotting the percent of inhibition. The experiments were triply performed.

[2] = biological target: T2, H. pylori urease (HPU) (Helicobacter pylori, UniProt P69996); assay: Urease inhibition test (modified Berthelot method); format: biochemical; conditions: HPU 0.25 mg/mL; 20 min preincubation 37°C, pH 7.5; read-out: IC50
T2 construct: HPU was prepared as previously described; made in house
T2 sequence (P14916 whole entry): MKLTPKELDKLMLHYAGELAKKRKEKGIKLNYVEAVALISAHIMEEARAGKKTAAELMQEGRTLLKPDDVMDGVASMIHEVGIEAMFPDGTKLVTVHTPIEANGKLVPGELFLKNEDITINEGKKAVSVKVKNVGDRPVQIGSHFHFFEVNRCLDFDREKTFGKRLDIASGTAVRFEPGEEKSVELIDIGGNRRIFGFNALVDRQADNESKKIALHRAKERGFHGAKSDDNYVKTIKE
T2 sequence (P69996 whole entry): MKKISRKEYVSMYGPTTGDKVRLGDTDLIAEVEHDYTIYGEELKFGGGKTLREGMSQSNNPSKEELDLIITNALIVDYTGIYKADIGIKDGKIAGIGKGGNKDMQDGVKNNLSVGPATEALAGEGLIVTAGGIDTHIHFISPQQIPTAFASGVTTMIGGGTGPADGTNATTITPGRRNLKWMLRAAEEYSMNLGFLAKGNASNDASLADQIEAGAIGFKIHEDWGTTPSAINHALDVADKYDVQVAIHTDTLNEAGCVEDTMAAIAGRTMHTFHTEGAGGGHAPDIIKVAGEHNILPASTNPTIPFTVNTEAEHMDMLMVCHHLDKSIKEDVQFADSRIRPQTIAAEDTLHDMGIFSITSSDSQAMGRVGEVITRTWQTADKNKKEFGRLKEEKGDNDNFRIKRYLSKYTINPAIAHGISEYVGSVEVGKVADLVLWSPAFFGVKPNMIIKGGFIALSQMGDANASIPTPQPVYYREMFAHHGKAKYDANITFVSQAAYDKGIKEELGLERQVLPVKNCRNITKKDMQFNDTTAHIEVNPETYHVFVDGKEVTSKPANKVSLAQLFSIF
Experimental: as §1, §2

[3] = biological target: T1, jack bean urease (JBU); assay: biochemical; conditions: Pal 0.5 mM, thiols 1.25 mM, replicates; for activity at 1250 µM: read-out: Residual urease activity (percent of control), Fig 4B JBU; for Residual urease activity (percent of control): Fig 4B JBU
Experimental: (§3) For the protection with thiols-containing compounds, the mixture consisting of 0.25 mg/mL urease (HPU or JBU), 0.5 mM Pal (for both HPU and JBU) and 1.25 mM thiols (DTT, GSH and L-cys) was incubated for 5, 10, 20, and 40 min at 37°C, respectively. The control sample instead of the protectors contained a proper volume of respective buffer.

[4] = biological target: T2, H. pylori urease (HPU); assay: biochemical; conditions: Pal 0.5 mM, thiols 1.25 mM, replicates; for activity at 1250 µM: read-out: Residual urease activity (percent of control), Fig 4A HPU; for Residual urease activity (percent of control): Fig 4A HPU
Experimental: as §3

[5] = biological target: T1, jack bean urease (JBU); assay: biochemical; format: biochemical; conditions: thiols 1.25 mM, Pal 0.5 mM, 20+20 min; for activity at 1250 µM: read-out: Residual urease activity (percent of control), Fig 5B JBU; for Residual urease activity (percent of control): Fig 5B JBU
Experimental: (§4) The reaction mixture consisted of 0.25 mg/mL HPU or JBU, 0.5 mM Pal (for both HPU and JBU), and 1.25 mM thiols (DTT, GSH, or L-cys) in 20 mM HEPES buffer (pH 7.5). The components of the incubation mixture were mixed according to three procedures: (1) Urease was added to the mixture after a 20-min co-incubation of Pal with thiol. (2) Pal was added to the mixture after a 20-min co-incubation of urease with thiol. (3) Thiols were added to the mixture after a 20-min co-incubation of urease with Pal. The incubation mixture containing all components was incubated for further 20 min and the activity of urease was determined. The experiments were triply performed.

[6] = biological target: T2, H. pylori urease (HPU); assay: biochemical; format: biochemical; conditions: thiols 1.25 mM, Pal 0.5 mM, 20+20 min; for activity at 1250 µM: read-out: Residual urease activity (percent of control), Fig 5A HPU; for Residual urease activity (percent of control): Fig 5A HPU
Experimental: as §4

[7] = biological target: T1, jack bean urease (JBU); assay: biochemical; format: biochemical; conditions: for Urease activity: Fig 6B JBU
Experimental: (§5) The reactivation of Pal-inactivated urease was investigated by DTT application. The preincubation mixture consisted of 0.25 mg/mL HPU or JBU and 0.5 mM Pal in 20 mM HEPES buffer (pH 7.5). Then the mixture was further incubated with 1.25 mM DTT after 20 min. The enzymatic activity of urease was determined before and after the addition of DTT. After a while, aliquots were withdrawn and the urease residual activity was determined. The experiments were repeated three times.

[8] = biological target: T2, H. pylori urease (HPU); assay: biochemical; format: biochemical; conditions: for Urease activity: Fig 6A HPU
Experimental: as §5

[9] = 1.25 mM DTT, control of reactivation assay
[10] = incubation time 5 min, Pal 0.5 mM, DTT 1.25 mM
[11] = incubation time 10 min, Pal 0.5 mM, DTT 1.25 mM
[12] = incubation time 15 min, Pal 0.5 mM, DTT 1.25 mM
[13] = incubation time 20 min, Pal 0.5 mM, DTT 1.25 mM
[14] = incubation time 120 min, DTT added post 20 min

## CC(=O)NO [AHA, Acetohydroxamic acid]
[1]
  IC50: 20 µM
[2]
  IC50: 70 ± 10 µM

## N[C@@H](CS)C(=O)O [L-Cys, L-cysteine]
[3]; 5 min, 5 min incubation
  activity at 1250 µM: 102%
[3]; 10 min, 10 min incubation
  activity at 1250 µM: 109%
[3]; 20 min, 20 min incubation
  activity at 1250 µM: 117%
[3]; 40 min, 40 min incubation
  activity at 1250 µM: 150%
[4]; 5 min, 5 min incubation
  activity at 1250 µM: 118%
[4]; 10 min, 10 min incubation
  activity at 1250 µM: 107%
[4]; 20 min, 20 min incubation
  activity at 1250 µM: 109%
[4]; 40 min, 40 min incubation
  activity at 1250 µM: 112%
[5]; order (Protector+Pal)+urease
  activity at 1250 µM: 147%
[5]; order (urease+Protector)+Pal
  activity at 1250 µM: 146%
[6]; order (Protector+Pal)+urease
  activity at 1250 µM: 83.2%
[6]; order (urease+Pal)+Protector
  activity at 1250 µM: 82.4%
[6]; order (urease+Protector)+Pal
  activity at 1250 µM: 105%

## N[C@@H](CCC(=O)N[C@@H](CS)C(=O)NCC(=O)O)C(=O)O [GSH, glutathione]
[3]; 5 min, 5 min incubation
  activity at 1250 µM: 129%
[3]; 10 min, 10 min incubation
  activity at 1250 µM: 130%
[3]; 20 min, 20 min incubation
  activity at 1250 µM: 129%
[3]; 40 min, 40 min incubation
  activity at 1250 µM: 146%
[4]; 5 min, 5 min incubation
  activity at 1250 µM: 72.8%
[4]; 10 min, 10 min incubation
  activity at 1250 µM: 90.4%
[4]; 20 min, 20 min incubation
  activity at 1250 µM: 94.7%
[4]; 40 min, 40 min incubation
  activity at 1250 µM: 97.5%
[5]; order (Protector+Pal)+urease
  activity at 1250 µM: 139%
[5]; order (urease+Pal)+Protector
  activity at 1250 µM: 140%
[6]; order (Protector+Pal)+urease
  activity at 1250 µM: 90.2%
[6]; order (urease+Pal)+Protector
  activity at 1250 µM: 85.2%
[6]; order (urease+Protector)+Pal
  activity at 1250 µM: 86.2%

## O[C@@H](CS)[C@@H](O)CS (racemic) [DTT, dithiothreithol]
[3]; 5 min incubation
  Residual urease activity (percent of control): 93.6533% and 90.8565% and 95.5784%
[3]; 10 min incubation
  Residual urease activity (percent of control): 106.756% and 109.689% and 104.897%
[3]; 20 min incubation
  Residual urease activity (percent of control): 115.579% and 114.01% and 114.79%
[3]; 40 min incubation
  Residual urease activity (percent of control): 142.945% and 126.676% and 135.643%
[4]; 5 min incubation
  Residual urease activity (percent of control): 81.4793% and 82.3893% and 84.6876%
[4]; 10 min incubation
  Residual urease activity (percent of control): 90.4823% and 88.7843% and 92.6863%
[4]; 20 min incubation
  Residual urease activity (percent of control): 93.6879% and 92.2701% and 94.7893%
[4]; 40 min incubation
  Residual urease activity (percent of control): 98.9725% and 95.7934% and 96.4654%
[5]; order (Protector+Pal)+urease
  Residual urease activity (percent of control): 164.505% and 163.42% and 167.948%
[5]; order (urease+Pal)+Protector
  Residual urease activity (percent of control): 156.562% and 141.035% and 115.717%
[5]; order (urease+Protector)+Pal
  Residual urease activity (percent of control): 175.198% and 170.348% and 183.958%
[6]; order (Protector+Pal)+urease
  Residual urease activity (percent of control): 93.1647% and 102.135% and 96.7756%
[6]; order (urease+Pal)+Protector
  Residual urease activity (percent of control): 108.215% and 111.632% and 112.117%
[6]; order (urease+Protector)+Pal
  Residual urease activity (percent of control): 93.9563% and 102.92% and 98.1268%
[7]; [9]
  JBU activity with DTT without Pal: ca. 100%
[7]; [10]
  Urease activity: 121.742% and 114.981% and 108.343%
[7]; [11]
  Urease activity: 110.236% and 112.928% and 115.246%
[7]; [12]
  Urease activity: 113.236% and 116.183% and 119.514%
[7]; [13]
  Urease activity: 121.141% and 121.265% and 120.209%
[7]; incubation time 25 min
  Urease activity: 120.019% and 120.291% and 121.459%
[7]; incubation time 40 min
  Urease activity: 107.983% and 105.801% and 103.225%
[7]; incubation time 60 min
  Urease activity: 111.088% and 107.798% and 104.326%
[7]; incubation time 90 min
  Urease activity: 107.125% and 104.437% and 101.122%
[7]; [14]
  Urease activity: 112.893% and 110.524% and 108.243%
[8]; [9]
  HPU activity with DTT without Pal: ca. 100%
[8]; [10]
  Urease activity: 95.491% and 88.7241% and 81.9292%
[8]; [11]
  Urease activity: 99.0165% and 99.0712% and 98.1423%
[8]; [12]
  Urease activity: 99.1346% and 97.2572% and 95.4326%
[8]; [13]
  Urease activity: 97.9325% and 92.9515% and 87.6438%
[8]; incubation time 40 min, DTT added post 20 min
  Urease activity: 92.9813% and 91.5048% and 89.9013%
[8]; incubation time 60 min
  Urease activity: 98.0126% and 92.5129% and 87.7924%
[8]; incubation time 90 min
  Urease activity: 91.4647% and 89.1159% and 85.7645%
[8]; [14]
  Urease activity: 96.0166% and 88.9974% and 82.2782%
